From ChEMBL document CHEMBL1157539, “Thousands of chemical starting points for antimalarial lead identification” (Nature, 2010) come the findings set out here.

The structures appear in SMILES notation.

The assay concerns Plasmodium falciparum. Nature of the assay: GSK_TCMDC: Inhibition of Plasmodium falciparum 3D7 in whole erythrocytes, using parasite LDH activity as an index of growth. It counts as functional, organism-based. The conditions noted are these: Plasmodium falciparum, 3D7.
Compound `CCN(CC)CCN(CCCc1ccc(-c2ccc(C(F)(F)F)cc2)cc1)C(=O)Cn1c(CCc2cccc(F)c2F)nc(=O)c2ccccc21` came in with an XC50 of 767 nM.

On to `CC(C)N1CCC(N(Cc2ccc(-c3ccc(C(F)(F)F)cc3)cc2)C(=O)CCCn2c(CCc3cccc(F)c3F)nc(=O)c3ccccc32)CC1`, for which the XC50 turned out to be 972 nM.

In turn, `O=C(/C=C/c1ccc(Cl)c(Cl)c1)NCCCCCN1CCN(C(=O)Nc2ccc(Cl)c(C(F)(F)F)c2)CC1` had an XC50 of 816 nM.

`FC(F)(F)CNc1nc(Nc2ccc3ncccc3c2)nc2[nH]ccc12` came in with an XC50 of 1240 nM.

The compound `COc1ccc2c(NCCc3ccccc3)cc(-c3ccccc3)nc2c1` registered an XC50 of 987 nM.

Compound `COC[C@H]1CCCN1Cc1ccc(-c2ccc(-c3nc4ccccc4[nH]3)s2)cc1` came in with an XC50 of 1000 nM.

In turn, `O=S(=O)(NCCN1CCCC1)c1cccc(-c2cccc(CNCc3ccccc3)c2)c1` yielded an XC50 of 811 nM.

`OCC1CCN(Cc2ccc(-c3ccc(-c4nc5cc(C(F)(F)F)ccc5[nH]4)s3)cc2)CC1` had an XC50 of 477 nM.

In turn, `CC(C)n1ncc2c(C(=O)N3CCCC4CCCCC43)cc(C3CC3)nc21` (stereo not drawn) returned an XC50 of 676 nM.

`CN1CCC(C(=O)N(Cc2ccc(-c3ccc(CNCCc4ccc(S(C)(=O)=O)cc4)cn3)cc2)C2CCN(Cc3ccccc3)CC2)CC1` had an XC50 of 673 nM.

On to `CN(C)CC(O)C(c1ccccc1)c1ccc(Cl)cc1` (stereo not drawn), for which the XC50 came out at 48.4 nM.

Turning to `CN(C)CCC(=O)c1ccccc1`, the XC50 was found to be 335 nM.

In turn, `Cc1ccccc1N1CCN(c2ccc(C(=O)Nc3ccccc3)cn2)CC1` displayed an XC50 of 587 nM.

`CC(C)CNCc1cccc(-c2ccc(CN(C(=O)Nc3ccccc3)C3CCN(Cc4ccccc4)CC3)cc2)c1` had an XC50 of 476 nM.

Take `O=C(Nc1ccc(Cl)cc1C(=O)Nc1cccc(F)c1)c1ccc([N+](=O)[O-])cc1`: the XC50 stood at 365 nM.

Turning to `NC[C@H](CC1CCCCC1)NC(=O)c1ccc(-c2ccnc3[nH]ccc23)s1`, the XC50 amounted to 950 nM.

In turn, `Cc1cccc2nc(-c3ccc(-c4ccc(C(=O)NCCN5CCCC5)cc4)s3)[nH]c12` returned an XC50 of 901 nM.

In turn, `CCOc1c(CCNCCCCNCCc2ccc3ccccc3c2OCC)ccc2ccccc12` registered an XC50 of 596 nM.

Compound `CN(C)Cc1ccc(O)c(-c2ccc(C(C)(C)C)cc2)n1` yielded an XC50 of 1080 nM.

In turn, `Cc1c(NCCCNCc2cc(Cl)cc(Cl)c2Cl)[nH]c2ccccc2c1=O` displayed an XC50 of 314 nM.

In turn, `COc1ccc(N2CCN(CCCN3CCN(C(=O)c4ccc(/C=C/c5ccc(Cl)c(Cl)c5)cc4)CC3)CC2)c(OC)c1` showed an XC50 of 907 nM.

Take `FC(F)(F)c1cccc(CNC2CCN(CC3CCCCC3)CC2)c1`: the XC50 stood at 575 nM.

In turn, `O=C(NC1CCC(CN2CCC(c3c[nH]c4ccccc34)CC2)CC1)NC12CC3CC(CC(C3)C1)C2` (stereo not drawn) came in with an XC50 of 1060 nM.

Consider `Cc1cccc(CNc2nc(C)cc(NCCC(=O)NCCOc3ccccc3)n2)c1`, for which the XC50 stood at 871 nM.

Compound `Cc1ccc(-n2nc(-c3ccccc3)c3cc(C(=O)NCCN)sc32)cc1` came in with an XC50 of 1370 nM.

In turn, `Cc1cccc2nc(-c3cccc(-c4ccc(NC(=O)c5c[nH]cn5)cc4)c3)[nH]c12` came in with an XC50 of 722 nM.

With `Cc1cccc2nc(-c3ccc(-c4ccc(CN5CCN(CC6CCCN(C)C6)CC5)cc4)cc3)[nH]c12` (stereo not drawn), the XC50 turned out to be 144 nM.

For the compound `CCCOc1ccc(-c2nonc2NC(=O)c2ccccc2OC)cc1OCCC`, the XC50 is 858 nM.

As for `Cc1cc(C2CCN(CCCCNC(=O)c3ccc(-c4ccc(C(F)(F)F)cc4)cc3)CC2)c(C)cc1OCC#N`, the XC50 came out at 1010 nM.

Compound `O=c1cc(NCCCNCc2cc3c(Cl)cccc3s2)[nH]c2ccccc12` showed an XC50 of 474 nM.

`Cc1ccccc1CNc1nccc(NCCC(=O)Nc2ccccc2)n1` gave an XC50 of 892 nM.

As to `Clc1ccc(CNCC2CCN(CC3CCCCC3)CC2)cc1Cl`, the XC50 is 1000 nM.

Turning to `CC(=O)Nc1ccc(OCCCCN(Cc2ccccc2C(F)(F)F)c2ccc(C(F)(F)F)c(C#N)c2)c(Cl)c1`, the XC50 was found to be 545 nM.

`c1ccc(COc2ccc(Nc3ncnc4cnc(-c5ccc(CNc6cccnc6)o5)cc34)cc2)cc1` registered an XC50 of 857 nM.

`CON=Cc1ccn(-c2ccc(O)c3c2C[C@H]2C[C@H]4[C@H](N(C)C)C(O)=C(C(N)=O)C(=O)[C@@]4(O)C(O)=C2C3=O)c1`: the XC50 worked out at 773 nM.

Compound `Cc1cccc(-c2nc(Nc3ccncc3)c3cc(N(C)C)ccc3n2)n1` returned an XC50 of 710 nM.

On to `COc1cccc(CN2CCC(N3CCc4cc(NC(=O)c5cc(C)on5)ccc43)C2)c1OC` (stereo not drawn), for which the XC50 stood at 952 nM.

With `Clc1cnc2ccc3c(c2c1CCN1CCC(NCc2cc4c(cn2)OCCO4)CC1)OCCO3`, the XC50 stood at 718 nM.

In the case of `Cc1c(CC(=O)N(C)C2CCN(CCCCCNC(=O)/C=C/c3ccc(Cl)c(Cl)c3)CC2)sc2ccc(Cl)cc12`, the XC50 amounted to 1160 nM.

As for `Cc1ccc2c(c1)nc(N)n2C[C@H](O)c1ccccc1`, the XC50 came to 582 nM.

`CC(C)(C)OC(=O)NCc1ccc(Nc2nnc(-c3cccc(C(=O)NCc4cc(C(F)(F)F)cc(C(F)(F)F)c4)c3)o2)cc1` displayed an XC50 of 865 nM.

`O=C(NCCCNc1ccc2ccccc2n1)c1cc2c(Cl)cc(Cl)cc2[nH]1`: the XC50 came to 604 nM.

Consider `Cc1ccccc1C1CCN(C2CCC(NC(=O)c3ccc4c(c3)-c3nocc3C(C)O4)CC2)CC1` (stereo not drawn), for which the XC50 was determined as 1270 nM.

Consider `CCCCN(CCCC)/C(=N/C(=N)NCc1ccc(Cl)c(Cl)c1)NCCCCCCN/C(=N\C(=N)NCc1ccc(Cl)c(Cl)c1)N(CCCC)CCCC`, for which the XC50 came to 399 nM.

Compound `Cc1cc(C)cc(CC(=O)N2CCC(n3c(C)nc4ccc(C)cc43)CC2)c1` gave an XC50 of 534 nM.

`COc1cc(NC(=O)c2sc(-c3ccc(Cl)cc3)cc2NC(=O)c2ccncc2)ccc1OCCN1CCCC1`: the XC50 was determined as 31.5 nM.

In turn, `CCOC(=O)N[C@@H]1CN[C@@H](C#Cc2cc3c(Nc4ccc(OCc5cccc(F)c5)c(Cl)c4)ncnc3s2)C1` gave an XC50 of 1080 nM.

`CCOC(=O)CNCC(=O)c1ccc(OCc2ccccc2)cc1`: the XC50 came to 161 nM.

In turn, `CC1CN(c2cc(=O)n(Cc3cccc(NC(=O)Nc4ccc(-c5ccccc5)cc4)c3)cn2)CC(C)N1` (stereo not drawn) displayed an XC50 of 396 nM.

For the compound `Cc1nnc(N2C(=N)SC(=Cc3ccc(-c4ccc(OC(F)(F)F)cc4)o3)C2=O)s1`, the XC50 amounted to 526 nM.

`COc1cc2c(cc1OC)C(C(=O)Nc1cc(OC)c(OC)c(OC)c1)C(c1ccc(SC)cc1)N(C)C2=O` (stereo not drawn) had an XC50 of 986 nM.

As to `c1cc(-c2cc3ccc(C4=NCCN4)cc3[nH]2)ccc1C1=NCCN1`, the XC50 was found to be 224 nM.

On to `COc1cc(Cc2cnc(N)nc2N)cc(OCCCS(=O)(=O)O)c1OC`, for which the XC50 came out at 1170 nM.

Turning to `CC(CN1CCN(C)CC1)C(=O)Nc1ccc(-c2ccc(-c3nc4cc(F)ccc4[nH]3)cc2)cc1` (stereo not drawn), the XC50 came to 792 nM.

`O=C(Nc1ccc(Oc2ccccc2)cc1)N(Cc1ccc(-c2ccc(CN3CCNCC3)cc2)cc1)C1CCN(Cc2ccccc2)CC1` gave an XC50 of 886 nM.

Compound `COc1ccc2c(c1)c(C1CCN(CCCCNC(=O)c3ccc(-c4ccc(C(F)(F)F)cc4)cc3)CC1)cn2C(C)C` displayed an XC50 of 729 nM.

Compound `O=C(/C=C/c1ccc(Cl)c(Cl)c1)NCCCCCN1CCCC(c2c[nH]c3ccccc23)C1` (stereo not drawn) had an XC50 of 812 nM.

For the compound `Clc1ncccc1-c1nc(NCCC(c2ccccc2)c2ccccc2)no1`, the XC50 was 1000 nM.

`O=C(c1ccc([N+](=O)[O-])o1)N1CCC(Cc2ccc(C(F)(F)F)cc2)CC1` came in with an XC50 of 166 nM.

`O=C(Nc1ccccc1)N(Cc1ccc(-c2cccc(CNCc3ccc4c(c3)OCO4)c2)cc1)C1CCN(Cc2ccccc2)CC1`: the XC50 is 284 nM.

As to `Cc1ccc(Nc2nc3cc(Nc4ccnc(Nc5ccc(CS(C)(=O)=O)cc5)n4)ccc3o2)cc1`, the XC50 worked out at 765 nM.

`O=C(/C=C/c1ccc(Cl)c(Cl)c1)NCCCCCN1CCCN(C(=O)Nc2cc(F)cc(F)c2)CC1` had an XC50 of 768 nM.

In turn, `COc1cc(NC(=O)NC(CCN2CCC3(CCc4ccccc43)CC2)c2ccc(Cl)c(Cl)c2)cc(OC)c1OC` (stereo not drawn) yielded an XC50 of 679 nM.

Take `CC(C)CNCc1ccc(-c2cccc(CN(C(=O)Nc3ccccc3)C3CCN(Cc4ccccc4)CC3)c2)cc1`: the XC50 turned out to be 410 nM.

`CC(Cc1ccc(C(=O)N2CCN(C(=O)c3ccc(CC(C)NCCc4cccc(Cl)c4)cc3)CC2)cc1)NCCc1cccc(Cl)c1` (stereo not drawn) registered an XC50 of 677 nM.

Turning to `O=C(/C=C/c1ccc(Cl)c(Cl)c1)N1CCC(CNCc2cccc3cc[nH]c23)CC1`, the XC50 was 1220 nM.

On to `O=S(=O)(NCCN1CCCC1)c1cccc(-c2cccc(CNCc3ccc(F)cc3)c2)c1`, for which the XC50 worked out at 848 nM.

`Oc1ccc(CNCCCCCCNCCc2ccc(Cl)cc2)cc1O` showed an XC50 of 989 nM.

`CCC(=Cc1cccc([N+](=O)[O-])c1)C(=O)NCC1CCN(c2nc3cc(OC)c(OC)cc3c(=N)[nH]2)CC1`: the XC50 was determined as 236 nM.

As for `O=C(O)c1ccc2nc(-c3ccc(-c4ccccc4)cc3)n(C3CCN(Cc4ccc(-c5ncc[nH]5)cc4)CC3)c2c1`, the XC50 came out at 1730 nM.

Consider `Cc1[nH]c(C)c(-c2ccc(-c3ccccc3Cl)nc2)c(=O)c1Cl`, for which the XC50 was determined as 217 nM.

For the compound `COc1cccc(CN2CCCC(CCC(=O)Nc3ccc(C(F)(F)F)cc3)C2)c1O` (stereo not drawn), the XC50 was found to be 747 nM.

For `O=C(Nc1nccs1)c1cn(-c2ccccc2)nc1-c1ccc(Cl)s1`, the XC50 stood at 970 nM.

`CC(C)(C)Nc1cc(C2CC2)nc(-c2ccccn2)n1` showed an XC50 of 679 nM.

The compound `CC(C)c1ccc(N2CCN(CCCCNC(=O)c3ccc(NC(=O)c4cc(Cl)cc(Cl)c4)cc3)CC2)cc1` yielded an XC50 of 156 nM.

`CN1c2ccccc2Sc2cc(CNCCSCCNCc3ccc4c(c3)Sc3ccccc3N4C)ccc21` registered an XC50 of 1010 nM.

In turn, `Fc1cccc(COc2ccc(Nc3ncnc4ccc(C#C[C@H]5CCCN5)cc34)cc2Cl)c1` gave an XC50 of 882 nM.

For the compound `Cc1ccc2c(Cl)c(C(=O)N3CCCc4ccccc43)sc2c1`, the XC50 stood at 1510 nM.

The compound `CC(C)(C)C1CCc2onc(C(=O)Nc3cc(Cl)ccc3O)c2C1` (stereo not drawn) registered an XC50 of 779 nM.

Take `c1cc(-c2ccc(CNC3CCOCC3)cc2)cc(-c2nc3ccccc3[nH]2)c1`: the XC50 came to 768 nM.

`N#Cc1ccc(N/C(=N\c2ccc(-c3ccccc3)cc2)NCCc2c[nH]c3ccccc23)c(O)c1` gave an XC50 of 336 nM.

As to `O=C(Nc1ccnc(-c2cccnc2)n1)c1cc(C(F)(F)F)cc(C(F)(F)F)c1`, the XC50 turned out to be 823 nM.

The compound `CCCOC(=O)C1=C(C)NC2=C(C(=O)CC(c3ccc(OC)c(OC)c3)C2)C1c1cccc(O)c1` (stereo not drawn) gave an XC50 of 121 nM.
